Biological target: SGK1 (human) (UniProt O00141)
Assay: Flashplate

Sequence of SGK1 (human) (O00141 whole entry, looked up): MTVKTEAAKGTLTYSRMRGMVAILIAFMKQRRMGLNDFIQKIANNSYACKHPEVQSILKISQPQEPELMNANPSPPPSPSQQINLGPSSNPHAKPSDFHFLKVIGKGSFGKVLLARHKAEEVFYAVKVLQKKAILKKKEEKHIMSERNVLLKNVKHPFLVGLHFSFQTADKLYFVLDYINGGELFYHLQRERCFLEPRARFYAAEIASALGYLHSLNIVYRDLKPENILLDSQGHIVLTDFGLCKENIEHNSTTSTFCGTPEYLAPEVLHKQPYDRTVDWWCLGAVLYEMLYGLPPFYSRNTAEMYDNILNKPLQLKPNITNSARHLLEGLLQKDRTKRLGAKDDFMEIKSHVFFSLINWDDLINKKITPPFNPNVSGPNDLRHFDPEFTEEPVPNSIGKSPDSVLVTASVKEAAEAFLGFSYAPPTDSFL

Row | Ki | Structure (SMILES)
1 | > 10 µM | CC1CSc2c(C(=O)O)c(=O)c3cc(F)c(N4CC[C@@H](N)C4)c(F)c3n21 (some centres undefined)
2 | > 10 µM | N#Cc1ncc2nc1OCCCCCOc1cc(OCCO)c(Cl)cc1NC(=O)N2
3 | 3.98 µM | Cc1n[nH]c2sc(C(=O)NCCc3ccc(Cl)cc3)cc12
4 | > 10 µM | COCCO[C@H]1CC[C@H](n2nc(-c3ccc(Nc4nc5cc(C)cc(Cl)c5o4)cc3)c3c(N)ncnc32)CC1
5 | > 10 µM | O=C1Nc2ccccc2Nc2nnccc21
6 | > 10 µM | Cc1ccc(CNc2c(Nc3ccncc3)c(=O)c2=O)cc1C
7 | 1 µM | O=S(=O)(NCCNC/C=C/c1ccc(Br)cc1)c1cccc2cnccc12
8 | > 10 µM | Nc1ncc(/C=C/C(=O)NCCCn2ccnc2)c2scc(-c3ccc(Br)cc3)c12
9 | 2.51 µM | CCCCOc1ncnc2[nH]cc(-c3ccccc3)c12
10 | > 10 µM | N#Cc1ncc2nc1OCC(O)C(O)COc1ccc(Cl)cc1NC(=O)N2 (centres undefined)
11 | 7.94 µM | O=c1[nH]cc(I)c2nc(-c3cccc(Cl)c3)cn12
12 | > 10 µM | Cc1cccc(NC(=O)Nc2ccc(-c3csc4nc(N)nc(N)c34)cc2)c1
13 | 0.158 µM | Nc1ncnc2c1sc1ncnc(N)c12
14 | > 10 µM | CN(C)S(=O)(=O)c1ccccc1-c1ccc2c(c1)Nc1ccccc1NC2=O
15 | > 10 µM | O=c1[nH]cnc2c1sc1c(Cl)ccc(Cl)c12
16 | 0.398 µM | O=C(N[C@H](CO)c1ccccc1)N1CC=C(c2c[nH]c3ncccc23)CC1
17 | > 10 µM | N#Cc1ncc2nc1OCCCCCOc1cc(CCCO)c(Cl)cc1NC(=O)N2
18 | > 10 µM | O=C(NC(CO)Cc1ccc(Cl)cc1)c1ccc(-c2ccncc2)cc1 (centres undefined)
19 | > 10 µM | CCOc1nc(NC(=O)Cc2cc(OC)ccc2OC)cc(N)c1C#N
20 | 0.631 µM | COc1cccc([C@@H](C)NC(=O)c2ccc(-c3ccncc3F)cc2OC)c1
21 | > 10 µM | CCCC(=O)Nc1n[nH]c2nc3ccccc3cc12
22 | > 10 µM | Cc1nc2c(sc3c(Br)ccc(Cl)c32)c(=O)o1
23 | > 10 µM | Cn1cc(C(CN)c2cncc(/C=C/c3ccncc3)c2)c2ccccc21 (centres undefined)
24 | 7.94 µM | CN(C)c1ccc(CNC(=O)c2cc3c(-c4ccccc4)n[nH]c3s2)cc1
25 | > 10 µM | Nc1ncnn2ccc(C(=O)Nc3ccc(NC(=O)Nc4cccc(F)c4)cc3)c12
26 | 2.51 µM | c1cnc2nc(-c3ccc4[nH]ncc4c3)c(NC3CCCCC3)n2c1

Row | Ki | Structure (SMILES)
27 | > 10 µM | C[C@]1(O)C[C@@H](c2nc(-c3ccc4ccc(-c5ccccc5)nc4c3)c3c(N)nccn32)C1
28 | 0.2 µM | O=C(O)c1ccccc1Nc1ccnc(Nc2ccc3cn[nH]c3c2)n1
29 | > 7.94 µM | O=c1ncn2nc(Sc3ccc(F)cc3F)ccc2c1-c1c(Cl)cccc1Cl
30 | > 10 µM | Nc1nonc1-n1nnc(C(=O)N/N=C/c2cccs2)c1-c1ccccc1
31 | > 10 µM | CN1CCN(CCCNc2cccc(-c3nc4c(C(N)=O)cccc4[nH]3)n2)CC1
32 | > 10 µM | CC(C)OC1=NNC(=O)/C1=C/c1c[nH]c2ccccc12
33 | > 5.01 µM | CNS(=O)(=O)c1ccccc1Nc1nc(Nc2cc(OC)c(OC)c(OC)c2)ncc1Cl
34 | > 10 µM | CN1CCN([C@H]2CC[C@H](n3cc(-c4ccc(Oc5ccccc5)cc4)c4c(N)ncnc43)CC2)CC1
35 | > 10 µM | C[C@H](Nc1c(Nc2ccncc2)c(=O)c1=O)C1CCCCC1
36 | > 10 µM | NNc1cc(N2CCOCC2)nc(OCCc2ccccn2)n1
37 | > 10 µM | Cc1ccc(F)c(NC(=O)Nc2ccc(-c3cncc4c3c(N)nn4C)cc2)c1
38 | > 10 µM | Cc1n[nH]c2cccc(-c3ccc(NC(=O)Nc4cccc(C(F)(F)F)c4)cc3)c12
39 | > 10 µM | Nc1c(-c2ccc(NC(=O)Nc3cccc(C(F)(F)F)c3)cc2)ccc2nccnc12
40 | > 10 µM | O=C(Nc1cccc(N2CCOCC2)n1)Nc1ccnc2c(C(F)(F)F)cccc12
41 | > 10 µM | Cc1cccc(C2(c3cccc(C)c3)CC2C(=O)Nc2ccncc2)c1 (centres undefined)
42 | 1 µM | Cc1cccc(NC(=O)Nc2ccc(-c3cccc4[nH]nc(N)c34)cc2)c1
43 | > 10 µM | OCCCn1cnc(-c2ccccc2)c1-c1ccncc1
44 | > 10 µM | Fc1ccc(-c2nc3occn3c2-c2ccnc(NC3CCNCC3)n2)cc1
45 | > 10 µM | CCOc1nc(C(=O)NCc2cccnc2)cc(N)c1C#N
46 | > 10 µM | CC(C)(CO)CNc1nccc(-c2c(-c3ccc(F)cc3)nc3c(Cl)nccn23)n1
47 | 1 µM | OCC[C@@H](Nc1nc2ccc(-c3ccncc3)cc2s1)c1ccccc1
48 | > 10 µM | CCN(CC)CCOc1ccc(-c2nc3c(C(N)=O)cccc3[nH]2)cc1
49 | 1 µM | Cc1cccc(Nc2nccc(Nc3c(N[C@H](C)C(C)(C)C)c(=O)c3=O)n2)c1
50 | > 10 µM | CN1CCN(Cc2ccc3c(c2)Cc2c(-c4csc(C#CCOCC5CC5)c4)n[nH]c2-3)CC1
51 | > 10 µM | COc1ccc(CNc2c(Nc3ccncc3)c(=O)c2=O)c(OC)c1
52 | > 10 µM | Cc1ccc(F)c(NC(=O)Nc2ccc(-c3ccc4nccnc4c3N)cc2)c1

Row | Ki | Structure (SMILES)
53 | > 10 µM | C/C(=N/NC(=N)N)c1cc(NC(=O)NCCCN(C)CCCNC(=O)Nc2cc(/C(C)=N\NC(=N)N)cc(/C(C)=N/NC(=N)N)c2)cc(/C(C)=N/NC(=N)N)c1
54 | 0.158 µM | CC(=O)Nc1cccc(CNc2c(Nc3ccc4[nH]ncc4c3)c(=O)c2=O)c1
55 | 6.31 µM | COc1cc(/C=C(\C#N)c2nc3ccccc3[nH]2)c(Br)cc1O
56 | 0.316 µM | Cc1c(-c2ccc3[nH]nc(N)c3c2)nnn1Cc1ccccc1
57 | > 10 µM | C[C@@H](Nc1c(Nc2ccncc2)c(=O)c1=O)C(C)(C)C
58 | > 10 µM | Cc1ccccc1NC(=O)Nc1ccc(NC(=O)c2csc3ncnc(N)c23)cc1
59 | > 10 µM | Cc1nn(C)c(C)c1-c1cccc2c(CCCOc3cccc4ccccc34)c(C(=O)O)[nH]c12
60 | 3.98 µM | NC(=O)c1cc(-c2ccnc(N)n2)[nH]c1-c1ccc(Cl)cc1F
61 | 0.126 µM | NC(=O)c1cccc(-c2cnc3[nH]cc(-c4ccccc4)c3c2)c1
62 | > 10 µM | O=C(Nc1ccc2[nH]ncc2c1)c1cccc(F)c1
63 | > 10 µM | Cn1cc(-c2ccncn2)c(-c2ccc(F)cc2)n1
64 | > 10 µM | COc1ccc(-c2cc3nccn3c(Nc3ccccc3C(N)=O)n2)cc1OC
65 | 0.251 µM | Cc1c[nH]c2nccc(Oc3c(F)cc(Nc4cc(Cl)nc(N)n4)cc3F)c12
66 | 0.2 µM | COc1cccc([C@@H](C)NC(=O)c2ccc(-c3ccncc3C)cc2)c1
67 | > 10 µM | CN(C)CC(C)(C)CNc1nccc(-c2c(-c3ccc(F)cc3)nc3cnccn23)n1
68 | > 10 µM | CC(=O)N1CCN(C2CCC(n3nc(-c4ccc(NC(=O)c5cc6ccccc6n5C)cc4)c4c(N)ncnc43)CC2)CC1 (centres undefined)
69 | > 10 µM | O=C(Nc1nc2ccccc2n1CCCO)c1cccc([N+](=O)[O-])c1
70 | > 10 µM | COc1ccc2c(NC(=O)Nc3cc(C(F)(F)F)ccn3)ccnc2c1
71 | 6.31 µM | Nc1ncc(-c2ccoc2)c2scc(-c3ccc(NC(=O)Nc4cccc(F)c4)cc3)c12
72 | > 10 µM | COc1cc(-c2ccc3[nH]nc(C(=O)Nc4ccccc4)c3c2)ccc1O
73 | > 10 µM | CCN1C(=O)N(C)c2cnc(Nc3ccc(C(=O)NC4CCN(C)CC4)cc3OC)nc2N1C1CCCC1
74 | > 10 µM | Cc1cccc(NC(=O)Nc2ccc(-c3csc4ncnc(N)c34)cc2)c1
75 | > 10 µM | CCOc1ccc(NC(=O)Nc2ccc(-c3csc4c(-c5cnn(C)c5)cnc(N)c34)cc2)cc1
76 | 0.501 µM | O=c1c(NCc2ccc(Cl)c(Cl)c2)c(Nc2ccncc2)c1=O

Row | Structure (SMILES) | Ki
77 | COc1cc2c(cc1F)C(c1ccccc1Cl)=Nc1c(n[nH]c1C)N2 | 7.94 µM
78 | COc1ccc2c(c1)/C(=C/c1cnc[nH]1)C(O)=N2 | 1 µM
79 | N[C@H](COc1cc(/C=C/c2ccncc2)cnc1Cl)Cc1c[nH]c2ccccc12 | > 10 µM

Source: the kinase profiling compilation of Christmann-Franck et al. (2016)
